One experiment addresses NAMPT (Homo sapiens (Human), UniProt P43490). Briefly: Assay 1: Biochemical Inhibition Assay (NAMPT enzymatic reaction, NMN quantified by mass spectrometry).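 Further: recombinant His-tagged human NAMPT preincubated with compound 15 min, then reacted 30 min at rt with 1 µM NAM, 100 µM PRPP, 2.5 mM ATP, NMN product read by RapidFire MS, normalized to L-Cystathionine internal standard.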 The settings on record: read-out: Biochemical (IC50).
A further experiment has as its system A2780 cells. Briefly: Assay 2: In-Vitro Cell Proliferation Assay (A2780 cells, SRB readout, 72 hours).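 Further: viable cells counted via sulforhodamine B staining, absorbance at 570 nm, after 72 h exposure at 37 °C, DMSO 0.1% as control, media-only background subtracted.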 It is filed as cell-based. The settings on record: A2780 cells, 72 hours, SRB, read-out: Cell Proliferation (IC50).

Like-named read-outs stand apart in the source and are kept apart here.

Sequence of NAMPT (P43490 whole entry): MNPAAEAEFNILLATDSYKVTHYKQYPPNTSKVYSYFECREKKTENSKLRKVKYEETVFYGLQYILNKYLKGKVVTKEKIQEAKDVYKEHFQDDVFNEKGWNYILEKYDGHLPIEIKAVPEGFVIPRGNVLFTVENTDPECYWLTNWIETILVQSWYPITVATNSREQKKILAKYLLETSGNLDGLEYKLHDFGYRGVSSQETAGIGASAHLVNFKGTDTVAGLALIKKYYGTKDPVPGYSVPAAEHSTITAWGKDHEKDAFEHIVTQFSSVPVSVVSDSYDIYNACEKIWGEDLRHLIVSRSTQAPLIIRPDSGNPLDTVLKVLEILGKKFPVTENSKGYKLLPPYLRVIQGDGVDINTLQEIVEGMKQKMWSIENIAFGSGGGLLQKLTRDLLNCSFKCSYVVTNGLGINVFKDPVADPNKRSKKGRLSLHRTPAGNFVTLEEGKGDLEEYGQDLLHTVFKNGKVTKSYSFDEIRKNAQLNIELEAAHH

Consider `CN(C)CCN1CCN(S(=O)(=O)c2ccc(CNC(=O)c3ccc4nccn4c3)cc2)CC1` [Example 105, Imidazo[1,2-a]pyridine-6-carboxylic acid 4-[4-(2-dimethylamino-ethyl)-piperazine-1-sulfonyl]-benzylamide], for which the IC50 was 6.8 nM on NAMPT and 9 nM in the experiment on A2780 cells (Homo sapiens, A2780, 72 h).
The matching figures for `O=C(NCc1ccc(S(=O)(=O)N2CCOC3(CCOC3)C2)cc1)c1ccc2nccn2c1` (racemic) [Example 167, Imidazo[1,2-a]pyridine-6-carboxylic acid 4-(2,6-dioxa-9-aza-spiro[4.5]decane-9-sulfonyl)-benzylamide]: 23.7 nM and 8.8 nM.
Take `CC(=O)N1CCC(S(=O)(=O)c2ccc(CNC(=O)c3cnc4nccn4c3)cc2)CC1` [Example 86, Imidazo[1,2-a]pyrimidine-6-carboxylic acid 4-(1-acetyl-piperidine-4-sulfonyl)-benzylamide]: the results for the IC50 on NAMPT and in the experiment with A2780 cells were 5.1 nM and 527 nM, respectively.
Regarding `O=C(NCc1ccc(S(=O)(=O)N2CC(F)(F)C2)cc1)c1cnc2[nH]ncc2c1` [Example 281, N-[[4-(3,3-difluoroazetidin-1-yl)sulfonylphenyl]methyl]-1H-pyrazolo[3,4-b]pyridine-5-carboxamide], the IC50 at NAMPT was 95.6 nM; in the experiment on A2780 cells (Homo sapiens, A2780, 72 h), 378 nM.
The matching figures for `O=C(NCc1ccc(S(=O)(=O)N2CCC3(CCCO3)C2)cc1)c1ccc2nccn2c1` (stereo not drawn) [Example 219, N-[[4-(1-oxa-7-azaspiro[4.4]nonan-7-ylsulfonyl)phenyl]methyl] imidazo[1,2-a]pyridine-6-carboxamide]: 8.45 nM and 2.17 nM.
The matching figures for `O=C(NCc1ccc(S(=O)(=O)N2CCN(CC(F)(F)F)CC2)cc1)c1ccc2nccn2c1` [Example 25, Imidazo[1,2-a]pyridine-6-carboxylic acid 4-[4-(2,2,2-trifluoro-ethyl)-piperazine-1-sulfonyl]-benzylamide]: 24.2 nM and 10.5 nM.
In the case of `O=C(NCc1ccc(S(=O)(=O)C2CCCN(C(=O)c3ccccc3)C2)cc1)c1cnc2[nH]ncc2c1` (stereo not drawn) [Example 350, N-[[4-[(1-benzoyl-3-piperidyl)sulfonyl]phenyl]methyl]-1H-pyrazolo[3,4-b]pyridine-5-carboxamide], the IC50 is 300 nM on NAMPT and 258 nM in the experiment on A2780 cells (Homo sapiens, A2780, 72 h).
`O=C(NCc1ccc(S(=O)(=O)N2CCC(F)(F)C2)cc1)c1cc2ccncc2o1` [Example 300, N-[[4-(3,3-difluoropyrrolidin-1-yl)sulfonylphenyl]methyl]furo [2,3-c]pyridine-2-carboxamide]: the IC50 came to 21.4 nM on NAMPT and 21.5 nM in the experiment on A2780 cells (Homo sapiens, A2780, 72 h).
The matching figures for `CS(=O)(=O)N1CCCC(S(=O)(=O)c2ccc(CNC(=O)c3cnc4[nH]ncc4c3)cc2)C1` (stereo not drawn) [Example 353, N-[[4-[(1-methylsulfonyl-3-piperidyl)sulfonyl)phenyl]methyl]-1H-pyrazolo[3,4-b]pyridine-5-carboxamide]: 3970 nM and 2000 nM.
The matching figures for `O=C(NCc1ccc(S(=O)(=O)C2CCN(C3COC3)CC2)cc1)c1cc2cnccc2[nH]1` [Example 115, 1H-Pyrrolo[3,2-c]pyridine-2-carboxylic acid 4-(1-oxetan-3-yl-piperidine-4-sulfonyl)-benzylamide]: 37.3 nM and 11.5 nM.
On to `O=C(NCc1ccc(S(=O)(=O)N2CC3(C2)CC(F)(F)C3)cc1)c1ccc2nccn2c1` [Example 270, N-[[4-[(6,6-difluoro-2-azaspiro[3.3]heptan-2-yl)sulfonyl]phenyl]methyl] imidazo[1,2-a]pyridine-6-carboxamide], for which the IC50 was 8.77 nM at NAMPT and 6.07 nM in the experiment on A2780 cells (Homo sapiens, A2780, 72 h).
The matching figures for `CC(C)C(=O)N1CCC(S(=O)(=O)c2ccc(CNC(=O)c3cc4ccncc4o3)cc2)CC1` [Example 313, N-[[4-[[1-(2-methylpropanoyl)-4-piperidyl]sulfonyl]phenyl]methyl]furo[2,3-c]pyridine-2-carboxamide]: 35 nM and 53.8 nM.

The record behind these values is patent publication US10696692B2, “Amido-benzyl sulfone and sulfoxide derivates” (Forma TM, LLC, priority 2012, dated 2020).
